Laboratory results published in ChEMBL document CHEMBL5465560, “Selectivity Literature for EUbOPEN Chemogenomic Library” (2024).

Assays:
[1] = molecular target: Hepatocyte growth factor-like protein (Homo sapiens) (UniProt P26927); conditions: at 10 µM
[2] = molecular target: Death-associated protein kinase 1 (Homo sapiens, UniProt P53355); test: Selectivity interaction (ProQinase) EUB0000171b DAPK1
[3] = molecular target: Insulin receptor (Homo sapiens, UniProt P06213); test: Selectivity interaction (KinomeScan (DiscoverX)) EUB0000092b INSR; conditions: at 10 µM
[4] = molecular target: Protein kinase C theta type (Homo sapiens, UniProt Q04759); test: Selectivity interaction (KinomeScan (DiscoverX)) EUB0000045b PRKCQ
[5] = system: Epidermal growth factor receptor (Homo sapiens), P00533 [UNDEFINED MUTATION]; test: Selectivity interaction (KinomeScan (DiscoverX)) EUB0000655a EGFR; conditions: at 10 µM
[6] = molecular target: T1, Serine/threonine-protein kinase Sgk1 (Homo sapiens) (UniProt O00141); test: Selectivity interaction (KinomeScan (DiscoverX)) EUB0001619a SGK1; conditions: at 1 µM
T1 sequence (whole entry): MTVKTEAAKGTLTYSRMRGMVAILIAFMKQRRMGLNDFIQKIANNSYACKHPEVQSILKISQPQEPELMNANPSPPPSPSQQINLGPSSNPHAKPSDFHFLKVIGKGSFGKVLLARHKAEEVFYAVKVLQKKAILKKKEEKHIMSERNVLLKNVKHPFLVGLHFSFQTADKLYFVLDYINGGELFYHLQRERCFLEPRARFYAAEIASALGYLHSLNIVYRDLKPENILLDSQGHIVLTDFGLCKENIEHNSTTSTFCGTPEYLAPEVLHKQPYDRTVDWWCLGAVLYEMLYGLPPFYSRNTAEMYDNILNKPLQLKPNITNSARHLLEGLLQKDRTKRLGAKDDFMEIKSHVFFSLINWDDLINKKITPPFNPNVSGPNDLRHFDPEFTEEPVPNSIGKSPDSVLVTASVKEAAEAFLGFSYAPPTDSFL

[7] = molecular target: Cyclin-dependent kinase 7 (Homo sapiens, UniProt P50613); test: Selectivity interaction (KinomeScan (DiscoverX)) EUB0000618a CDK7; conditions: at 10 µM
[8] = molecular target: T2, Mitogen-activated protein kinase kinase kinase 3 (Homo sapiens) (UniProt Q99759); test: Selectivity interaction (Kinase panel (KiNativ target engagement assay in Jurkat cells)) EUB0001635a MAP3K3; type: cell-based; conditions: Selectivity number of off-targets 0.0, Selectivity number of targets 233.0, Source Knowledge https://www.sciencedirect.com/science/article/pii/S2451945619300674?via%3Dihub, at 1 µM
T2 sequence (whole entry): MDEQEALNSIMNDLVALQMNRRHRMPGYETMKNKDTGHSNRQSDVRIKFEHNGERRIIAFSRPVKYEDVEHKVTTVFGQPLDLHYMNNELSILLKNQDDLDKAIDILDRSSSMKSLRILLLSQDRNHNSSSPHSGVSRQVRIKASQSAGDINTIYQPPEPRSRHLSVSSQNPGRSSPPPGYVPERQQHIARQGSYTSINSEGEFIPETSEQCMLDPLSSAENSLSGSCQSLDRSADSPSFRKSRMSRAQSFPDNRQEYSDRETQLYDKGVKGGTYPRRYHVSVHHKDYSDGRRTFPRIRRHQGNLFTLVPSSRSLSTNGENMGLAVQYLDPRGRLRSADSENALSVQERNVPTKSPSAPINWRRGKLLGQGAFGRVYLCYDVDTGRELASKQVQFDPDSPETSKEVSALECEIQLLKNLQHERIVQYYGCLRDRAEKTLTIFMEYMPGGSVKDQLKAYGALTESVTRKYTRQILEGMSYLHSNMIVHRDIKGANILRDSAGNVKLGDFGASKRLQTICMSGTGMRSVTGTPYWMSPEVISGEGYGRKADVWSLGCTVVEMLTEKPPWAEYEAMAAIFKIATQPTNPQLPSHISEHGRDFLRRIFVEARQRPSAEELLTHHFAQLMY

[9] = molecular target: Casein kinase I isoform gamma-2 (Homo sapiens) (UniProt P78368); test: Selectivity interaction (KinomeScan (DiscoverX)) EUB0000666a CSNK1G2; conditions: at 10 µM
[10] = molecular target: Mitogen-activated protein kinase kinase kinase 10 (Homo sapiens) (UniProt Q02779); test: Selectivity interaction (KinomeScan (DiscoverX)) EUB0000666a MAP3K10; conditions: at 10 µM
[11] = molecular target: Histamine H1 receptor (Homo sapiens, UniProt P35367); test: Selectivity interaction (Panel of kinases, GPCRs, ion channels and transporters (enzymatic assay)) EUB0000223bCl HRH1
[12] = molecular target: T3, Cytoplasmic tyrosine-protein kinase BMX (Homo sapiens) (UniProt P51813); test: Selectivity interaction (Kinase panel (DSF assay)) EUB0001558a BMX
T3 sequence (whole entry): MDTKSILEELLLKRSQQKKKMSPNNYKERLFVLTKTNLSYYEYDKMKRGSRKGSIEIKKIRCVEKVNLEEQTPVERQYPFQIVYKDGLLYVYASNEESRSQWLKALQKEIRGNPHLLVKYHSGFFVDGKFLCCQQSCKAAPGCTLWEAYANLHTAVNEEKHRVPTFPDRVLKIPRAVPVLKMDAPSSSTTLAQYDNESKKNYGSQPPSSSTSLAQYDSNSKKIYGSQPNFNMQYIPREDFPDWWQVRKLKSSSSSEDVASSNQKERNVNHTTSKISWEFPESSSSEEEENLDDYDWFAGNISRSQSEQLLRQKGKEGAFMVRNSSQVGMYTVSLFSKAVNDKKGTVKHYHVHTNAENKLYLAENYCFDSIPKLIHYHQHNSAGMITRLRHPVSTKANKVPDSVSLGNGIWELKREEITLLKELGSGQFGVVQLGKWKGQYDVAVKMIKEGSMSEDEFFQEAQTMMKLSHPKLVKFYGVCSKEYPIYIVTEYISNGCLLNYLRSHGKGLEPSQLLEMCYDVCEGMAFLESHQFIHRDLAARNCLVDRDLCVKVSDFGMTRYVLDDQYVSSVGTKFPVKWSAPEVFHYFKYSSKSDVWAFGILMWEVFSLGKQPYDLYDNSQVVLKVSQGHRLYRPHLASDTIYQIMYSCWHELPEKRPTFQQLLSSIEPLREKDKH

Sequence of Death-associated protein kinase 1 (P53355 whole entry, looked up): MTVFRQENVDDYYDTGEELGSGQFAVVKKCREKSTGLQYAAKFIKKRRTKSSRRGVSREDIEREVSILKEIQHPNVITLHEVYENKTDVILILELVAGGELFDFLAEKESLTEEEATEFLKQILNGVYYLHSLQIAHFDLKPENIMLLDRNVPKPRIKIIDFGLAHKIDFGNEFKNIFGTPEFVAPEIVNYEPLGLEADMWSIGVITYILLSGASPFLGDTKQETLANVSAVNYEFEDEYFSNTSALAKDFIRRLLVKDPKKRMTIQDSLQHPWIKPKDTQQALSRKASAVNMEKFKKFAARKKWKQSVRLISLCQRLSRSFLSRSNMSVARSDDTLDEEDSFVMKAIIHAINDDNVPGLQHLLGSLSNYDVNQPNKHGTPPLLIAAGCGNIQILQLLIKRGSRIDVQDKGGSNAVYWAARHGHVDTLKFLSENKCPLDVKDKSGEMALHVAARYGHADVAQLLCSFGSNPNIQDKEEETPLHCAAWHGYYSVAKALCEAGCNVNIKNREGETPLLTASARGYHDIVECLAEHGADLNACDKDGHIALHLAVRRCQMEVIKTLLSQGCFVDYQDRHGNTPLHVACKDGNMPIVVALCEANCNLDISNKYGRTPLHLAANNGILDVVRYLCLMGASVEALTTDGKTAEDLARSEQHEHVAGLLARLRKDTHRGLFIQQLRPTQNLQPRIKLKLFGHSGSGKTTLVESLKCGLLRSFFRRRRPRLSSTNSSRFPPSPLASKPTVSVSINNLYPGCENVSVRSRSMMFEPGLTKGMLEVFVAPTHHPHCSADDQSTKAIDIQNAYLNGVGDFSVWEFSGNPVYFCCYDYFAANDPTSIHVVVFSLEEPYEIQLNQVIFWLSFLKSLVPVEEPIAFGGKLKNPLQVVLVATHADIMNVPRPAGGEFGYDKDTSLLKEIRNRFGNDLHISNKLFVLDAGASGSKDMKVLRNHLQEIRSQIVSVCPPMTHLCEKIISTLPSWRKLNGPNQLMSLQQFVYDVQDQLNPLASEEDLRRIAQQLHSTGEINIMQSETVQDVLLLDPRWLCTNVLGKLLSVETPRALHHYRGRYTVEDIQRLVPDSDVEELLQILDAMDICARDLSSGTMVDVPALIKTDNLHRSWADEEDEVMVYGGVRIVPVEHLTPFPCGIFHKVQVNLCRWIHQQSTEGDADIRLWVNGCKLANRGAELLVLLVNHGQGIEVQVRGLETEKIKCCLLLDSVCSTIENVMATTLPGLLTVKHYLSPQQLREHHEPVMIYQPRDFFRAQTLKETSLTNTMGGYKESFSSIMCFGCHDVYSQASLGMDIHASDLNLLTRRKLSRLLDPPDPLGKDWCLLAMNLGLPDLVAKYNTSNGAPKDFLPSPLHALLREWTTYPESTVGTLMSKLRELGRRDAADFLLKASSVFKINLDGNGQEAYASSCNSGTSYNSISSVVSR
Sequence of Protein kinase C theta type (Q04759 whole entry, looked up): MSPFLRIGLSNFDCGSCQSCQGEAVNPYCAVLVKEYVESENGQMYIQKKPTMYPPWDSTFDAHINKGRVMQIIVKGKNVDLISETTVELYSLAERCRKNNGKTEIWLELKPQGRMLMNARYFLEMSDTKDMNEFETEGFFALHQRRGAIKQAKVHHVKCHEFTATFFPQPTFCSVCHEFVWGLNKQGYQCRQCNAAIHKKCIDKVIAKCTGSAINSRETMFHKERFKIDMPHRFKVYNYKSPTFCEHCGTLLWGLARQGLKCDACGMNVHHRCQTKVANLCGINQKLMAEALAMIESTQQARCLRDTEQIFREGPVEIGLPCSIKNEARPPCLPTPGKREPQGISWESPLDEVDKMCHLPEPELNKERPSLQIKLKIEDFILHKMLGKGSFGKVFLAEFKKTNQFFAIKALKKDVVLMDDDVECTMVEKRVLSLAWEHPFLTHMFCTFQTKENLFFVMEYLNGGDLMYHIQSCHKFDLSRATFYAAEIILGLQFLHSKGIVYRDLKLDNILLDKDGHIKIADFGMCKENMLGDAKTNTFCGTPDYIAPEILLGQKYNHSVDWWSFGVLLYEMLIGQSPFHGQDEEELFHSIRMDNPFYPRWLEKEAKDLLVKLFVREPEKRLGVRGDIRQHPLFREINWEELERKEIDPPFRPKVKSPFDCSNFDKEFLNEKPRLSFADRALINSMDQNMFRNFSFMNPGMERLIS
Sequence of Epidermal growth factor receptor (Homo sapiens), P00533 [UNDEFINED MUTATION] (P00533 whole entry, looked up, change not shown): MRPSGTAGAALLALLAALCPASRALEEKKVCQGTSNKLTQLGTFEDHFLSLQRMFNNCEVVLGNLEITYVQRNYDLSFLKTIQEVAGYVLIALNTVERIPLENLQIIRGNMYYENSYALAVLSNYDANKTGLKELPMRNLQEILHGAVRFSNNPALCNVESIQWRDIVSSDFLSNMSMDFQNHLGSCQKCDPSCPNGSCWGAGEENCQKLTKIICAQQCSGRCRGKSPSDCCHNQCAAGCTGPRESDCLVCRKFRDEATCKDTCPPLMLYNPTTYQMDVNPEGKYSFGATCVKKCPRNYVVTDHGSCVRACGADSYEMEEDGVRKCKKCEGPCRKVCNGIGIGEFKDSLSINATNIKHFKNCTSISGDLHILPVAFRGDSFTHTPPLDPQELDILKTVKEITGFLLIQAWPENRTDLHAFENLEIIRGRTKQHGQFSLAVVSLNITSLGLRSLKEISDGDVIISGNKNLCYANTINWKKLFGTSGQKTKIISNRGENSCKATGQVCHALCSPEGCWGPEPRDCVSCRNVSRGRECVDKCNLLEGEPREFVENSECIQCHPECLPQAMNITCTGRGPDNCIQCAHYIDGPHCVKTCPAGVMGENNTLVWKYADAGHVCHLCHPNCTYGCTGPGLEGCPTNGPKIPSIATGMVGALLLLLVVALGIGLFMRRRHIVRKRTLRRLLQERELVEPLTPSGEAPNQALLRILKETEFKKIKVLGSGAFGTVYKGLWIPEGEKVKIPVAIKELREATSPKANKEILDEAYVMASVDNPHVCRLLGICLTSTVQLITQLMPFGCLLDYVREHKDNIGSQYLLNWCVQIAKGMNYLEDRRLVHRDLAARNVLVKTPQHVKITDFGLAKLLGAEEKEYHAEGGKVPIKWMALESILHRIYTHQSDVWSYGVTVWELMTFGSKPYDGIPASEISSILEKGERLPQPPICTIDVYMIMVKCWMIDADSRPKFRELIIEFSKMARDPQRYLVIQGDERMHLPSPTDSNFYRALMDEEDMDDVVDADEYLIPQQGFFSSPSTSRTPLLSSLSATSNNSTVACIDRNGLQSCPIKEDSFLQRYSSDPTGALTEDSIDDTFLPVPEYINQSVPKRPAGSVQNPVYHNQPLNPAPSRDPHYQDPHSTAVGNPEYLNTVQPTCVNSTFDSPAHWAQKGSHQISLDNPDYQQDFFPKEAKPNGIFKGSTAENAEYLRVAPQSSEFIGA
Sequence of Insulin receptor (P06213 28-758 limits assumed): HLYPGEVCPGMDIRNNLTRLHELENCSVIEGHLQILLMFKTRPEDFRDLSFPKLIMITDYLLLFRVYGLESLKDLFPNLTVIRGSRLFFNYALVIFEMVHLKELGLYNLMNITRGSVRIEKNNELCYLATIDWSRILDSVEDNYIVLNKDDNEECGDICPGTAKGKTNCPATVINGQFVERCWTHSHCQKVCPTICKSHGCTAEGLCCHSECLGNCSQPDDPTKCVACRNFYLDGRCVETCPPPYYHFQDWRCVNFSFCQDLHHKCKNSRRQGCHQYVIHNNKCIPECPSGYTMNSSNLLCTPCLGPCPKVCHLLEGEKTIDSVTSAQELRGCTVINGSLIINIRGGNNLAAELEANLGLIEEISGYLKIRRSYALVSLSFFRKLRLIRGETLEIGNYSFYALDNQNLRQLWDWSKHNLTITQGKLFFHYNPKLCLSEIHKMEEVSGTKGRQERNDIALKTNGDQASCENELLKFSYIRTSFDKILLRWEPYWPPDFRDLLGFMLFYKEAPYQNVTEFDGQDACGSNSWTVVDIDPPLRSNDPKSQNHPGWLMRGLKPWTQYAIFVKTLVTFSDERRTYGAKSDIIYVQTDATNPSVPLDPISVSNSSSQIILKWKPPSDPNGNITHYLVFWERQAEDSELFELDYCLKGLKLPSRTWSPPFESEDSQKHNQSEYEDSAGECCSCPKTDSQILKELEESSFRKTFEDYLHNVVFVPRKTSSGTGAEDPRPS
Sequence of Insulin receptor (P06213 763-1382 limits assumed): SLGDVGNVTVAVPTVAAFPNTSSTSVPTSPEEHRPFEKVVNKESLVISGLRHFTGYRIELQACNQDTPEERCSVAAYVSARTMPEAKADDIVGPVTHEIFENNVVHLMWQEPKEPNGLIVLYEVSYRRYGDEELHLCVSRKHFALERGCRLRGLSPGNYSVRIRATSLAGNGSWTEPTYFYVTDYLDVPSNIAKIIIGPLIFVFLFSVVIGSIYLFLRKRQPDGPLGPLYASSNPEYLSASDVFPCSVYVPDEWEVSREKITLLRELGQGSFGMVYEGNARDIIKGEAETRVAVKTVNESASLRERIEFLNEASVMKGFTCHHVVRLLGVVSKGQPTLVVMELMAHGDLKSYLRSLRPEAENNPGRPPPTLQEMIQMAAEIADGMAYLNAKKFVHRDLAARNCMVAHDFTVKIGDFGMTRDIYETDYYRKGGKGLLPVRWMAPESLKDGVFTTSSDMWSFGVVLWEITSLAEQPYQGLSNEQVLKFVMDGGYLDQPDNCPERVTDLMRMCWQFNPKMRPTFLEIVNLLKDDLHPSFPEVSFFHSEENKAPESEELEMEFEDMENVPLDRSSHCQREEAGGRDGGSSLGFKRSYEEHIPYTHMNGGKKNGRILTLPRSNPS
Sequence of Cyclin-dependent kinase 7 (P50613 whole entry): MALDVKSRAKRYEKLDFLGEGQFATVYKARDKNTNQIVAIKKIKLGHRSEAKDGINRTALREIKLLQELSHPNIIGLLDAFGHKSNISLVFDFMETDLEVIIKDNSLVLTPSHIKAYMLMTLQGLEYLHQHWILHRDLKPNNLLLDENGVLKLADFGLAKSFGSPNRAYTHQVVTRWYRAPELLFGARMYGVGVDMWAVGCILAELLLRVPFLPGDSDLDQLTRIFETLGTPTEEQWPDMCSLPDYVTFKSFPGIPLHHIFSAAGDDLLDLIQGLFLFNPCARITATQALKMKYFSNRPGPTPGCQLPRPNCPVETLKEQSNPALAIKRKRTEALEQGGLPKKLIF

For `Cc1cc([C@@H](C)Nc2ccccc2C(=O)O)c2nc(N3CCOCC3)cc(=O)n2c1` [AZD-6482], the % of control [1] was 95%.
`C=CC(=O)Nc1cccc(C(=O)Nc2ccc(Nc3cc(-c4[nH]c(SC)nc4C)ccn3)cc2)c1` showed a % of control ([2]; at 1 µM) of 100% and a % of control ([2]; at 5 µM) of 94%.
For `CCC(=O)N1CCN(c2ccc(-n3c(=O)ccc4cnc5ccc(-c6cnc7ccccc7c6)cc5c43)cc2C(F)(F)F)CC1`, the % of control [3] was 7.6%.
Molecule `C=CC(=O)Nc1cc(-n2c(=O)ccc3cnc4ccc(-c5ccc(NS(C)(=O)=O)cc5)cc4c32)ccc1C` has a % of control ([4]; at 1 µM) of 100% and a % of control ([4]; at 10 µM) of 76%.
Work on `CN(C)CCOc1ccc(-c2nc(-c3ccncc3)c(-c3ccc4c(c3)CC/C4=N\O)[nH]2)cc1` yielded a % of control [5] of 81%.
Molecule `N#Cc1cccc(-c2c[nH]c3ncnc(N4CCOCC4)c23)c1` has a % of control [6] of 65%.
Molecule `O[C@H]1CC[C@H](Nc2ncc3nc(Nc4c(F)cc(F)cc4F)n([C@H]4CCOC4)c3n2)CC1` has a % of control [7] of 100%.
`C=CC(=O)Nc1ccc(C(=O)Nc2[nH]nc3c2CN(C(=O)N[C@H](CN(C)C)c2ccccc2)C3(C)C)cc1` was tested, and the % of engagement [8] was 4.7%.
With `O=C(NOC[C@H](O)CO)c1ccc(F)c(F)c1Nc1ccc(I)cc1F` the % of control [9] was 95% and the % of control [10] was 100%.
With `COc1cc(C(=O)N2CC[C@@H](O)[C@@H](N)C2)cc2nc(-c3cc4ccccc4n3CC3CC3)n(C)c12` the pXC50 [11] was < 4.4 M.
Molecule `CC(C)(O)[C@H](F)CN1Cc2cc(NC(=O)c3cnn4cccnc34)c(N3CCOCC3)cc2C1=O` has a dTM [12] of 0.2 K.
